The results in this text go back to patent US9127079B2, “Inhibitors of phosphatase and tensin homolog (PTEN) conjugates” (THE UNIVERSITY OF BRITISH COLUMBIA, priority 2009, dated 2015).

Format in all cases: cell-based, rat
Series [1] relates to PTEN. As to the kind of experiment: Immunostaining of endogenous PTEN: nuclear translocation in cultured neurons with NMDA. To be noted: peptide 10 uM, NMDA stimulation. Here is the method: (§1) Dissociated cultures of rat cortical or hippocampal neurons were prepared from 18-d-old Sprague Dawley rat embryos as described previously (Mielke and Wang 2005). To obtain mixed cultures enriched with neurons, uridine (10 μM) and 5-Fluor-T-deoxyuridine (10 μM) were added to the culture medium at 3 d in vitro (DIV) and maintained for 48 h to inhibit non-neuronal cell proliferation before the cultures were returned to the normal culture medium. Mature neurons (12-14 DIV) were used for experiments.
(§2) In order to induce excitotoxicity, 12-14 DIV cultured neurons were washed and transferred to Mg2+-free extracellular solution (ECS) containing the following (in mM): 25 HEPES acid, 140 NaCl, 33 glucose, 5.4 KCl, and 1.3 CaCl2, with pH 7.35 and osmolarity 320-330 mOsm. ECS and subjected to NMDA-induced excitotoxicity (20 μM NMDA, 10 μM glycine, 60 min at room temperature) or any other experimental conditions as indicated in the texts. Cells were then washed twice with normal ECS, and returned to the original growth conditions until additional assay.

The subject of series [2] is PTEN. As to the kind of experiment: Western blotting of nuclear fractions from cultured neurons: PTEN nuclear translocation. To be noted: NMDA stimulation. How it is done: as §1
In order to induce excitotoxicity, 12-14 DIV cultured neurons were washed and transferred to Mg2+-free extracellular solution (ECS) containing the following (in mM): 25 HEPES acid, 140 NaCl, 33 glucose, 5.4 KCl, and 1.3 CaCl2, with pH 7.35 and osmolarity 320-330 mOsm. […]
For western blotting, 10 μg of the nuclear extract or 40 μg of total cell lysate (solubilized by 1% SDS, 1 mM EGTA, 1 mM EDTA, 1 mM DTT, 2 mM sodium orthovanadate, and protease inhibitors cocktail in PBS) from each treatment condition was separated with SDS-PAGE, transferred onto a polyvinylidene difluoride (PVDF) membrane, and probed with the relevant antibodies. […] Band intensities were quantified using NIH ImageJ™ software and normalized to the quantity of a nuclear marker or β-tubulin in each sample lane.
(In western blotting, separated proteins are transferred to a membrane and probed.)

Series [3] relates to cultured hippocampal neurons. As to the kind of experiment: Neuronal death by LDH assay, NMDA excitotoxicity. To be noted: NMDA 20 uM, 1 hour. How it is done: (§3) Dissociated cultures of rat cortical or hippocampal neurons were prepared from 18-d-old Sprague Dawley rat embryos as described previously (Mielke and Wang 2005). To obtain mixed cultures enriched with neurons, uridine (10 μM) and 5-Fluor-T-deoxyuridine (10 μM) were added to the culture medium at 3 d in vitro (DIV) and maintained for 48 h to inhibit non-neuronal cell proliferation before the cultures were returned to the normal culture medium. Mature neurons (12-14 DIV) were used for experiments. […]
(§4) Necrotic neuronal death was quantified by measuring lactate dehydrogenase (LDH) release 20 h after treatments using a Cyto Tox™ 96 assay kit (Promega™, Madison, Wis.). Absorbance readings were measured using a spectrophotometric microplate reader. Apoptotic neuronal death was determined by visualizing the nucleus condensation and fragmentation of neurons stained with Hoechst-33342™. Images were taken with a Leica DMIRE2™ fluorescence microscope. […] These observations were quantified by double-blind counting of apoptotic and total neurons in each visual field and expressed as percentage apoptosis. […] Data are expressed as the difference in apoptosis relative to control and are expressed as a percentage.

Series [4] deals with cultured hippocampal neurons. Briefly: Neuronal death by nuclei staining (Hoechst 33342), NMDA excitotoxicity. The conditions noted are these: NMDA 20 uM, 1 hour. How it is done: as §3, §4
In the next series the test system is nuclear PIP3. As to the kind of experiment: Level of nuclear PIP3 after NMDA treatment. Here is the method: as §1, §2
Nuclear extracts were isolated from control and NMDA-treated cell cultures (10^8 cells) using the Panomics™ nuclear extraction kit (Panomics™; catalog number AY2002) as recommended by the manufacturer.

In the case of “YGRKKRRQRRR-PEETSEKVENGS (YGRKKRRQRRRPEETSEKVENGS; PTEN K289 interference peptide conjugated to TAT protein transduction domain) [Peptide-K289, TAT protein transduction domain fused to PTEN K289 interference peptide; control for Peptide-K13]”, the “PTEN nuclear translocation (endogenous PTEN immunostaining)” value in the series on PTEN [1] was “failed to do so”. The “PTEN nuclear translocation (western blotting of nuclear fractions)” value with PTEN [2] was “failed to do so”.

As to `CN[C@H](CC(=O)O)C(=O)O` [NMDA, N-methyl-D-asparate], the “cell death, LDH assay” value in series [3] was “significant cell death”. The “cell death, nuclei staining” value in series [4] is on record as “significant cell death”. In the series with nuclear PIP3, the “level of nuclear PIP3” value was “reduced the level of nuclear PIP3”.
